Type in all cases: functional
For test [1], the system named is Eleusine coracana. The test can be described thus: Phytostimulatory activity in Eleusine coracana (finger mellet) seedlings assessed as vigour index at 40 g/L (reference value: 567 +/- 0.5 no unit).
Test [2] relates to Bipolaris setariae. The test can be described thus: Antifungal activity against Bipolaris setariae infected finger millet seed assessed as fungal occurrence at 10 g/L after 1 week by stereoscopic analysis (reference value: 18 +/- 0.40%).
Test [3] has as its system Pyricularia grisea. The test can be described thus: Antifungal activity against Magnaporthe grisea infected finger millet seed assessed as fungal occurrence at 10 g/L after 1 week by stereoscopic analysis (reference value: 12.5 +/- 0.35%).
Test [4] relates to Eleusine coracana. The experiment in a line: Induction of seed germination in Eleusine coracana (finger mellet) at 10 g/L (reference value: 81 +/- 0.40%).
Test [5] relates to Pyricularia grisea. The experiment in a line: Antifungal activity against Magnaporthe grisea infected finger millet seed assessed as fungal occurrence at 1 g/L after 1 week by stereoscopic analysis (reference value: 12.5 +/- 0.35%).
In test [6] the test system is Bipolaris setariae. The experiment in a line: Antifungal activity against Bipolaris setariae infected finger millet seed assessed as fungal occurrence at 1 g/L after 1 week by stereoscopic analysis (reference value: 18 +/- 0.40%).
Test [7] concerns Eleusine coracana. The test can be described thus: Induction of seed germination in Eleusine coracana (finger mellet) at 20 g/L (reference value: 81 +/- 0.40%).
The subject of test [8] is Eleusine coracana. The experiment in a line: Phytostimulatory activity in Eleusine coracana (finger mellet) seedlings assessed as vigour index at 20 g/L (reference value: 567 +/- 0.5 no unit).
Test [9] concerns Eleusine coracana. The experiment in a line: Induction of seed germination in Eleusine coracana (finger mellet) at 1 g/L (reference value: 81 +/- 0.40%).
For test [10], the system named is Eleusine coracana. The experiment in a line: Induction of seed germination in Eleusine coracana (finger mellet) at 40 g/L (reference value: 81 +/- 0.40%).
In test [11] the test system is Bipolaris setariae. The test can be described thus: Antifungal activity against Bipolaris setariae infected finger millet seed assessed as fungal occurrence at 40 g/L after 1 week by stereoscopic analysis (reference value: 18 +/- 0.40%).
Test [12] concerns Eleusine coracana. The experiment in a line: Phytostimulatory activity in Eleusine coracana (finger mellet) seedlings assessed as vigour index at 1 g/L (reference value: 567 +/- 0.5 no unit).
In test [13] the test system is Bipolaris setariae. The test can be described thus: Antifungal activity against Bipolaris setariae infected finger millet seed assessed as fungal occurrence at 20 g/L after 1 week by stereoscopic analysis (reference value: 18 +/- 0.40%).
In test [14] the test system is Pyricularia grisea. The experiment in a line: Antifungal activity against Magnaporthe grisea infected finger millet seed assessed as fungal occurrence at 20 g/L after 1 week by stereoscopic analysis (reference value: 12.5 +/- 0.35%).
Test [15] relates to Eleusine coracana. The experiment in a line: Phytostimulatory activity in Eleusine coracana (finger mellet) seedlings assessed as vigour index at 10 g/L (reference value: 567 +/- 0.5 no unit).
For test [16], the system named is Pyricularia grisea. The experiment in a line: Antifungal activity against Magnaporthe grisea infected finger millet seed assessed as fungal occurrence at 40 g/L after 1 week by stereoscopic analysis (reference value: 12.5 +/- 0.35%).

In ChEMBL document CHEMBL3045297, “Synthesis and antifungal activity of 2-azetidinonyl-5-(2-benzoylphenoxy)methyl-1,3,4-oxadiazoles against seed-borne pathogens of Eleusine coracana (L.) Gaertn” (2009) one finds Vigour_index and Activity data, which are given here for eleven molecules.

SMILES strings stand for the structures.

For the molecule `Cc1cc(OCc2nnc(N3C(=O)C(Cl)C3c3cccc(Br)c3)o2)c(C(=O)c2ccccc2)cc1Cl` (stereo unspecified), the Vigour_index is recorded as 656 with Eleusine coracana [1], 715 with Eleusine coracana [8], 661 in the test with Eleusine coracana [12] and 677 in the test on Eleusine coracana [15]. Besides, the Activity in the test on Bipolaris setariae [2] was 1%; with Pyricularia grisea [3], 2%; in the test on Eleusine coracana [4], 86%; with Pyricularia grisea [5], 3%; in the test with Bipolaris setariae [6], 2%; in the test on Eleusine coracana [7] it was 89%. For the same molecule, the Activity is 86% in the test with Eleusine coracana [9]; 82% in the test on Eleusine coracana [10]; 2% in the test on Bipolaris setariae [11]; 2% in the test on Bipolaris setariae [13]; 1% in the test on Pyricularia grisea [14]; 0% in the test on Pyricularia grisea [16].

`O=C(c1cccc(Cl)c1)c1cc(Cl)ccc1OCc1nnc(N2C(=O)C(Cl)C2c2cccc(Br)c2)o1` (stereo unspecified): the Vigour_index amounted to 700 in the test on Eleusine coracana [1], 711 in the test on Eleusine coracana [8], 622 in the test with Eleusine coracana [12] and 668 in the test on Eleusine coracana [15]. Also, the Activity in the test with Bipolaris setariae [2] was 2%; in the test on Pyricularia grisea [3] it was 1%; in the test on Eleusine coracana [4], 86%; in the test with Pyricularia grisea [5], 2%; with Bipolaris setariae [6], 2.5%; with Eleusine coracana [7], 89%. Moreover, the Activity in the test on Eleusine coracana [9] worked out at 85%; in the test on Eleusine coracana [10], 90%; with Bipolaris setariae [11], 0.5%; in the test on Bipolaris setariae [13], 0.5%; in the test with Pyricularia grisea [14], 0.5%; in the test with Pyricularia grisea [16], 0.5%.

For `O=C(c1ccccc1)c1cc(Cl)ccc1OCc1nnc(N2C(=O)C(Cl)C2c2cccc(Br)c2)o1` (stereo unspecified), the Vigour_index in the test on Eleusine coracana [1] is reported as 641; in the test on Eleusine coracana [8] it was 620; with Eleusine coracana [12] it was 544; with Eleusine coracana [15], 585. Moreover, the Activity in the test with Bipolaris setariae [2] turned out to be 10%; in the test with Pyricularia grisea [3], 5%; with Eleusine coracana [4] it was 83%; in the test with Pyricularia grisea [5], 6%; in the test on Bipolaris setariae [6], 11%; in the test with Eleusine coracana [7], 83%. The Activity worked out at 81% in the test with Eleusine coracana [9]; 86% in the test with Eleusine coracana [10]; 6% in the test on Bipolaris setariae [11]; 7% with Bipolaris setariae [13]; 4% with Pyricularia grisea [14]; 3% in the test on Pyricularia grisea [16].

Take `COC(=O)Nc1nc2ccccc2[nH]1` [CARBENDAZIM]: the Vigour_index was 621 with Eleusine coracana [1], 612 in the test on Eleusine coracana [8], 567 in the test on Eleusine coracana [12] and 579 in the test with Eleusine coracana [15]. Moreover, the Activity with Bipolaris setariae [2] is listed as 3%; with Pyricularia grisea [3] it was 1.5%; in the test with Eleusine coracana [4] it was 84%; in the test on Pyricularia grisea [5], 1.5%; in the test on Bipolaris setariae [6] it was 3%; in the test with Eleusine coracana [7], 85%. Moreover, the Activity was 82% in the test with Eleusine coracana [9]; 87% in the test with Eleusine coracana [10]; 2% with Bipolaris setariae [11]; 2% in the test on Bipolaris setariae [13]; 1% in the test on Pyricularia grisea [14]; 1% with Pyricularia grisea [16].

As to `Cc1ccc(OCc2nnc(N3C(=O)C(Cl)C3c3cccc(Br)c3)o2)c(C(=O)c2ccc(Cl)cc2)c1` (stereo unspecified), the Vigour_index in the test with Eleusine coracana [1] was 693; in the test on Eleusine coracana [8], 645; with Eleusine coracana [12], 588; in the test on Eleusine coracana [15], 611. For the same molecule, the Activity in the test with Bipolaris setariae [2] was determined as 9%; in the test with Pyricularia grisea [3], 3%; with Eleusine coracana [4], 85%; with Pyricularia grisea [5], 4%; in the test with Bipolaris setariae [6], 11%; with Eleusine coracana [7], 85%. For the same molecule, the Activity with Eleusine coracana [9] came to 81%; in the test with Eleusine coracana [10], 87%; in the test with Bipolaris setariae [11], 4.5%; with Bipolaris setariae [13] it was 5%; with Pyricularia grisea [14] it was 3%; in the test with Pyricularia grisea [16], 2%.

For `O=C(c1ccccc1)c1ccc(Br)cc1OCc1nnc(N2C(=O)C(Cl)C2c2cccc(Br)c2)o1` (stereo unspecified), the Vigour_index with Eleusine coracana [1] is listed as 663; in the test with Eleusine coracana [8], 655; in the test with Eleusine coracana [12], 572; in the test with Eleusine coracana [15], 615. Besides, the Activity in the test on Bipolaris setariae [2] is on record as 4.5%; in the test on Pyricularia grisea [3], 3.5%; with Eleusine coracana [4] it was 86%; in the test with Pyricularia grisea [5] it was 4%; with Bipolaris setariae [6], 13.5%; with Eleusine coracana [7], 86%. Also, the Activity worked out at 81% with Eleusine coracana [9]; 83% with Eleusine coracana [10]; 2.5% in the test on Bipolaris setariae [11]; 3.5% in the test with Bipolaris setariae [13]; 3.5% in the test with Pyricularia grisea [14]; 2.5% in the test with Pyricularia grisea [16].

Take `COc1ccc(C(=O)c2cc(C)ccc2OCc2nnc(N3C(=O)C(Cl)C3c3cccc(Br)c3)o2)cc1` (stereo unspecified): the Vigour_index in the test on Eleusine coracana [1] was determined as 688; in the test on Eleusine coracana [8], 706; in the test with Eleusine coracana [12], 626; with Eleusine coracana [15], 658. Further, the Activity is recorded as 2.5% with Bipolaris setariae [2]; 2.5% with Pyricularia grisea [3]; 88% in the test with Eleusine coracana [4]; 3.5% with Pyricularia grisea [5]; 3.5% with Bipolaris setariae [6]; 90% with Eleusine coracana [7]. The Activity in the test on Eleusine coracana [9] was 85%; in the test with Eleusine coracana [10], 84%; with Bipolaris setariae [11] it was 2%; in the test with Bipolaris setariae [13], 2%; in the test on Pyricularia grisea [14] it was 1%; with Pyricularia grisea [16], 1%.

Consider `Cc1ccc(OCc2nnc(N3C(=O)C(Cl)C3c3cccc(Br)c3)o2)c(C(=O)c2ccccc2Cl)c1` (stereo unspecified), for which the Vigour_index turned out to be 692 in the test on Eleusine coracana [1], 754 in the test with Eleusine coracana [8], 645 in the test on Eleusine coracana [12] and 674 in the test with Eleusine coracana [15]. Besides, the Activity in the test on Bipolaris setariae [2] was 3.5%; in the test on Pyricularia grisea [3], 3%; in the test on Eleusine coracana [4], 84%; in the test on Pyricularia grisea [5] it was 3.5%; in the test with Bipolaris setariae [6], 4%; with Eleusine coracana [7] it was 86%. In addition, the Activity in the test with Eleusine coracana [9] is recorded as 82%; in the test on Eleusine coracana [10], 89%; in the test on Bipolaris setariae [11], 2%; with Bipolaris setariae [13] it was 2%; with Pyricularia grisea [14], 2%; in the test on Pyricularia grisea [16], 1%.

In the case of `Cc1ccc(OCc2nnc(N3C(=O)C(Cl)C3c3cccc(Br)c3)o2)c(C(=O)c2cccc(Cl)c2)c1` (stereo unspecified), the Vigour_index with Eleusine coracana [1] worked out at 630; with Eleusine coracana [8], 639; in the test with Eleusine coracana [12], 581; in the test with Eleusine coracana [15] it was 590. Further, the Activity is 4.5% in the test on Bipolaris setariae [2]; 3.5% in the test with Pyricularia grisea [3]; 80% in the test on Eleusine coracana [4]; 5% in the test on Pyricularia grisea [5]; 3.5% with Bipolaris setariae [6]; 82% in the test with Eleusine coracana [7]. The Activity with Eleusine coracana [9] came out at 80%; in the test on Eleusine coracana [10], 80%; in the test with Bipolaris setariae [11], 6%; with Bipolaris setariae [13], 2.5%; in the test with Pyricularia grisea [14] it was 4.5%; in the test on Pyricularia grisea [16], 4.5%.

With `Cc1ccc(C(=O)c2cc(C)ccc2OCc2nnc(N3C(=O)C(Cl)C3c3cccc(Br)c3)o2)cc1` (stereo unspecified), the Vigour_index worked out at 659 with Eleusine coracana [1], 680 in the test with Eleusine coracana [8], 594 in the test with Eleusine coracana [12] and 633 with Eleusine coracana [15]. For the same molecule, the Activity in the test on Bipolaris setariae [2] was determined as 6%; in the test with Pyricularia grisea [3], 4%; with Eleusine coracana [4], 82%; in the test on Pyricularia grisea [5] it was 4%; in the test with Bipolaris setariae [6] it was 14%; with Eleusine coracana [7] it was 86%. Besides, the Activity in the test on Eleusine coracana [9] was 80%; in the test on Eleusine coracana [10] it was 83%; in the test on Bipolaris setariae [11] it was 1.5%; in the test with Bipolaris setariae [13], 2.5%; in the test on Pyricularia grisea [14] it was 1.5%; in the test with Pyricularia grisea [16], 1%.

`Cc1ccc(OCc2nnc(N3C(=O)C(Cl)C3c3cccc(Br)c3)o2)c(C(=O)c2ccccc2)c1` (stereo unspecified): the Vigour_index in the test with Eleusine coracana [1] is 620; with Eleusine coracana [8], 589; in the test with Eleusine coracana [12], 565; in the test with Eleusine coracana [15], 569. Besides, the Activity with Bipolaris setariae [2] worked out at 6%; in the test with Pyricularia grisea [3], 3.5%; in the test on Eleusine coracana [4], 81%; in the test with Pyricularia grisea [5] it was 12%; in the test on Bipolaris setariae [6] it was 15%; with Eleusine coracana [7] it was 84%. Further, the Activity in the test on Eleusine coracana [9] is recorded as 80%; in the test with Eleusine coracana [10], 86%; with Bipolaris setariae [11], 1%; in the test on Bipolaris setariae [13], 4.5%; in the test with Pyricularia grisea [14] it was 2.5%; in the test with Pyricularia grisea [16] it was 2%.
